According to ChEMBL document CHEMBL1201862, “PubChem BioAssay data set” (2004):
Active and inactive are the calls of the source. Peptide text beside a SMILES is read from it. * marks the point of attachment. Cbz = O=C(OCc1ccccc1)*

Legend:
BJ [1] = test: BJ-TERT fibroblast viability loss – cell-based, RAS-independent, luminescence, dose response (AID 1933); assay type: functional; conditions: Homo sapiens
[2] = target: Dual specificity tyrosine-phosphorylation-regulated kinase 1A (Rattus norvegicus, UniProt Q63470); assay type: biochemical, Homo sapiens
[3] = ADP-Glo luciferase signal interference – biochemical, luminescence, cherry-picked samples, set 2, artefact control for CDK5 inhibitor project, dose response (AID 504546); assay type: functional, cell-based
BJ [4] = test: growth inhibition of engineered Ras-driven BJ cells – cell-based, alamar blue fluorescence, cherrypicked samples, dose response (AID 2631); assay type: functional; conditions: Homo sapiens;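 note: confirmatory dose-response assay in RAS-dependent BJ fibroblasts engineered with TERT, LT and ST, with cytotoxicity read by fluorescence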
BJ [5] = test: cells; assay type: functional, cell-based; conditions: Homo sapiens
BJ [6] = test: BJ-TERT-LT-ST fibroblast viability loss – cell-based, RAS-independent, luminescence, dose response (AID 1935); assay type: functional; conditions: Homo sapiens;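 note: BJ fibroblasts immortalized with TERT plus LT and ST oncogenes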
[7] = Luminescence Cell-Based Dose Confirmation HTS to Identify Inhibitors of Platelet Dense Granule Release. [Related pubchem assays: 1663 (Primary HTS), 1678 (Summary of Project)]; assay type: functional
[8] = target: Luciferin 4-monooxygenase (Photinus pyralis, UniProt P08659); test: inhibition of purified Photinus pyralis luciferase – biochemical, luminescence, dose response (AID 1891)
Chain of Luciferin 4-monooxygenase (P08659 whole entry): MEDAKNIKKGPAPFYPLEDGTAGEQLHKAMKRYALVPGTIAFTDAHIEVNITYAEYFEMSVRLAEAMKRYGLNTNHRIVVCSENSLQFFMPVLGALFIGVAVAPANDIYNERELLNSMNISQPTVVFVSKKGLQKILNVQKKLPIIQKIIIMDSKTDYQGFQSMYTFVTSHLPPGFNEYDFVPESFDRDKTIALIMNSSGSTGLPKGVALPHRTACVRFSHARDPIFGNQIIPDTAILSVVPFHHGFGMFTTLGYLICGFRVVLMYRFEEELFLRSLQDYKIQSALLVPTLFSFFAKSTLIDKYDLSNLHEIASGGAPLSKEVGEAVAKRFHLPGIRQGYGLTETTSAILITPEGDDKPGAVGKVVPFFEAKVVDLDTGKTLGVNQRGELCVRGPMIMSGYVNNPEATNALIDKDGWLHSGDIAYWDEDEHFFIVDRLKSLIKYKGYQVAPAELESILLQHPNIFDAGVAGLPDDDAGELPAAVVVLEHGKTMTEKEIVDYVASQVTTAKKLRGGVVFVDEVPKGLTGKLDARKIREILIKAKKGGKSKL

[9] = DRD fibroblast viability loss – cell-based, non-viral oncogenic, luminescence, dose response (AID 1934); assay type: functional; conditions: Homo sapiens
[10] = target: Cyclin-dependent kinase 5/CDK5 activator 1 (Homo sapiens, UniProt Q00535); test: blockade of human CDK5 activity – biochemical, cherry-picked samples, set 2, dose response (AID 504545)
[11] = target: DNA dC->dU-editing enzyme APOBEC-3G (Homo sapiens, UniProt Q9HC16); test: inhibition of APOBEC3G ssDNA deamination – biochemical, fluorescence, single-stranded DNA substrate, SAR follow-up (AID 602136); assay type: functional; conditions: read-out: IC50_Mean
Chain of DNA dC->dU-editing enzyme APOBEC-3G (Q9HC16 whole entry): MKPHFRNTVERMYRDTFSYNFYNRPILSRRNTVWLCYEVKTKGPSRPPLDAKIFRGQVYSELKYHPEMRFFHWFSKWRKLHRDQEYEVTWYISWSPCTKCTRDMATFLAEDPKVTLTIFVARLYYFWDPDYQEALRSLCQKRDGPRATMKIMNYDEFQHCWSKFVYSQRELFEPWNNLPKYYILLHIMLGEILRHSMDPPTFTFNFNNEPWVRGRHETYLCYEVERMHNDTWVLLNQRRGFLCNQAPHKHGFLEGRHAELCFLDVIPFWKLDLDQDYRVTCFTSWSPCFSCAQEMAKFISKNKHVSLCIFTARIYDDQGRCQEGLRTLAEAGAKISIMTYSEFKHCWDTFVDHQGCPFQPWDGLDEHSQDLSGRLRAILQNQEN

[12] = target: DNA dC->dU-editing enzyme APOBEC-3A (Homo sapiens, UniProt P31941); test: SAR analysis of small molecule inhibitors of APOBEC3A DNA Deaminase via a fluorescence-based single-stranded DNA deaminase assay.; assay type: functional; conditions: read-out: IC50_Mean
Chain of DNA dC->dU-editing enzyme APOBEC-3A (P31941 whole entry): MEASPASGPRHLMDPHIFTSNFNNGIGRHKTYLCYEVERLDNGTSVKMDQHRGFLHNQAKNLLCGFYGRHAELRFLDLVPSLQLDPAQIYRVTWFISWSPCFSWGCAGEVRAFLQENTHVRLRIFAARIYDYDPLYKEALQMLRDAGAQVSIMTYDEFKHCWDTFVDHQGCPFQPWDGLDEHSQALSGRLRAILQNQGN

[13] = Vero cell cytotoxicity, cytotoxicity control for M. tuberculosis inhibitor project, purified and synthesized samples, set 3 (AID 504684); assay type: functional
[14] = A Cell Based Secondary Assay to Explore Cytotoxicity in THP-1 Cells of Compounds that Modulate Mycobacterium tuberculosis in Media Containing Glycerol versus Media without Glycerol (2).; assay type: functional
Fatty acid synthase [15] = target: T1, Fatty acid synthase (Homo sapiens, UniProt P49327); test: inhibition of human FAS-TE enzyme activity – biochemical, kinetic fluorescence intensity, dose response (AID 624326); assay type: functional;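 note: rate of fluorescence rise from hydrolysis of a fluorogenic O-methyl fluorescein ester substrate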
T1 sequence (P49327 whole entry): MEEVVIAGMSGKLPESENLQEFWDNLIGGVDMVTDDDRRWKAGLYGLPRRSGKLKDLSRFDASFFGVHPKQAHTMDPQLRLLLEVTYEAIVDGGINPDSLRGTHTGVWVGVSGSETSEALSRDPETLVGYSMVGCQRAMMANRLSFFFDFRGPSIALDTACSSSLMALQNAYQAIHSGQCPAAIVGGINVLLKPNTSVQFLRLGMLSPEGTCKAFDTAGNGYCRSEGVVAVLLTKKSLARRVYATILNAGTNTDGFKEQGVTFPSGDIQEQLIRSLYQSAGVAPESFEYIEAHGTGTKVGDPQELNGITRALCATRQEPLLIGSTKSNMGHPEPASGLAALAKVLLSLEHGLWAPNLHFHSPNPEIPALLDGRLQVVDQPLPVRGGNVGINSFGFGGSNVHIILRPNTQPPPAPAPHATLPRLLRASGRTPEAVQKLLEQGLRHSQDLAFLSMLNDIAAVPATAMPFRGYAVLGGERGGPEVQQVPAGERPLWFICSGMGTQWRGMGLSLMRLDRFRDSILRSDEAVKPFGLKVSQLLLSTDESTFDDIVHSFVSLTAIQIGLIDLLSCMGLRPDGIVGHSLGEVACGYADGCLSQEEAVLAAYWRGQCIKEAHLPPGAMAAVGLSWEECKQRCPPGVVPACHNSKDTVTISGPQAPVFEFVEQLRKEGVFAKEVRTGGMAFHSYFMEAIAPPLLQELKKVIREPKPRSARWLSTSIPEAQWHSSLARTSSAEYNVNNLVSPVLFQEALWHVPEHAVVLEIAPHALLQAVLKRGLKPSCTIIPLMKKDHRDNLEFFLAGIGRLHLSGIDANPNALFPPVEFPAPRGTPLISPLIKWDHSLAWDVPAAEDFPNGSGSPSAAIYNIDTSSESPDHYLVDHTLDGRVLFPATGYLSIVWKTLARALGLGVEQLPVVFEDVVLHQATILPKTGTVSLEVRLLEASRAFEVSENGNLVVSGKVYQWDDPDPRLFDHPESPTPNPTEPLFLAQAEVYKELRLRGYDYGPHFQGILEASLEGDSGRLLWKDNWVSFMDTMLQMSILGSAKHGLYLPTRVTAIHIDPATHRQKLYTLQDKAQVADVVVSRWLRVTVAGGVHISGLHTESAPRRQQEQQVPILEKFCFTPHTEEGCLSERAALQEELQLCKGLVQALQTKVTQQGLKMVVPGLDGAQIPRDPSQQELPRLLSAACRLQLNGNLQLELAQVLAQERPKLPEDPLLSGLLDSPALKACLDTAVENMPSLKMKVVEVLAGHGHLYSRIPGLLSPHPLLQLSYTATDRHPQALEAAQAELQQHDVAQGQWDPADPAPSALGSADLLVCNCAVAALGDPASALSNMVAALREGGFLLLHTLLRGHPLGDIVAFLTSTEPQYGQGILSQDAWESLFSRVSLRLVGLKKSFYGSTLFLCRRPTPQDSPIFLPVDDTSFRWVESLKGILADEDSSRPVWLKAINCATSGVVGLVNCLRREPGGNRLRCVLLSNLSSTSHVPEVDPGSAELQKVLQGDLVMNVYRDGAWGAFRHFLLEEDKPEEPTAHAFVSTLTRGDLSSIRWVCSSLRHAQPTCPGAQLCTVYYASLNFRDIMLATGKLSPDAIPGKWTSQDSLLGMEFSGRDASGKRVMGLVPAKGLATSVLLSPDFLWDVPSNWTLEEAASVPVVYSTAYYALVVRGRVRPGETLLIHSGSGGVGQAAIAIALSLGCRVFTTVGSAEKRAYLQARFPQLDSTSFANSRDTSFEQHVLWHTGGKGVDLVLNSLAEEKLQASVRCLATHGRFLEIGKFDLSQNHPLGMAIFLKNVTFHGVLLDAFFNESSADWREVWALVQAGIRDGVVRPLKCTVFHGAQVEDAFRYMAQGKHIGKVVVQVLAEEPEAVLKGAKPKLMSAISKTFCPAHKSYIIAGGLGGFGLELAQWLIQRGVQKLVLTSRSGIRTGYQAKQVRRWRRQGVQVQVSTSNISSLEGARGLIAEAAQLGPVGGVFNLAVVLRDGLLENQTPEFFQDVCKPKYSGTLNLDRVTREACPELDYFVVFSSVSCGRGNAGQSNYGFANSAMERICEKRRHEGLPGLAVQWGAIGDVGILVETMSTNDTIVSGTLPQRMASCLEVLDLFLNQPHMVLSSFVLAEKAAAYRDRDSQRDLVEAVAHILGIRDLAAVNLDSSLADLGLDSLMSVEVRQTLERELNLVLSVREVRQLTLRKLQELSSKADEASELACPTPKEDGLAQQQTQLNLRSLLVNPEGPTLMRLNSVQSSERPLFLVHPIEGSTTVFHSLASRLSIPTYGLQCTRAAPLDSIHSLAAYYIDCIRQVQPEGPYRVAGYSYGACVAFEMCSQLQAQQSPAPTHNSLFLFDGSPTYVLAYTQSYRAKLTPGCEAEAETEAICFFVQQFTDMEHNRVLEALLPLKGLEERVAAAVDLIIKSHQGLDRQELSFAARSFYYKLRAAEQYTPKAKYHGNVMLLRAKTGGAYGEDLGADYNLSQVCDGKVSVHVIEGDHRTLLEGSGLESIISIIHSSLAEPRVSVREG

Fatty acid synthase [16] = target: T1, Fatty acid synthase; test: inhibition of human FAS-TE enzyme activity – biochemical, endpoint fluorescence intensity, uHTS hits, dose response (AID 624327); assay type: functional;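 note: fluorescence from hydrolysis of an O-methyl fluorescein acyl ester substrate by the enzyme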
[17] = cAMP pathway inhibition in counterscreen cell line – TR-FRET cAMP detection, counter-screen for MC4R biased antagonist project, dose response (AID 602305); assay type: functional, cell-based;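 note: U2OS cells stimulated with forskolin near its EC80 as the cAMP inducer; potency is for inhibition of forskolin-stimulated cAMP signaling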
Melanocortin receptor 4 = Melanocortin receptor 4 (Homo sapiens, UniProt P32245); test: inhibitors of MC4R cAMP signaling – cell-based, TR-FRET, biased antagonists, dose response (AID 602298); assay type: functional;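 note: antagonist potency against agonist-stimulated cAMP production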
Chain of Melanocortin receptor 4 (P32245 whole entry): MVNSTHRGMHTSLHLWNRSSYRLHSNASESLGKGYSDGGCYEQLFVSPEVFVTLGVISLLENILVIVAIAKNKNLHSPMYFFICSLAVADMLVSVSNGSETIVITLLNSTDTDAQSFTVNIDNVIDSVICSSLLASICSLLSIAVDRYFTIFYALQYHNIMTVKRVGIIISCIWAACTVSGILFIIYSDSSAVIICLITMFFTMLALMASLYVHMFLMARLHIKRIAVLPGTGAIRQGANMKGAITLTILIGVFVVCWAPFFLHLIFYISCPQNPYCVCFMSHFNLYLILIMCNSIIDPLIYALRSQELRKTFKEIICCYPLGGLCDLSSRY

[18] = bead-based luminescence quenchers, dual-tagged ARNT – biochemical, AlphaScreen, cherry-pick, artefact control for ARNT-TACC3 interaction inhibitor project, dose response (AID 651705); assay type: functional;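 note: AlphaScreen bead proximity signal that flags compounds interfering with the detection technology; potency reflects signal decrease which marks the compound as an assay artifact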
Interleukin-8 [19] = target: T2, Interleukin-8 (Homo sapiens, UniProt P10145); test: Dose Response confirmation of uHTS small molecule hits for cystic fibrosis induced NFkb Inhibitors in a PAF-induced IL8 counterscreen.; assay type: functional; conditions: read-out: IC50_Mean
T2 sequence (P10145 whole entry): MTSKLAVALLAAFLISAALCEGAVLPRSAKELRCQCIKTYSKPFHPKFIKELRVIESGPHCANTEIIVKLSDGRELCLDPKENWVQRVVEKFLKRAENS

Interleukin-8 [20] = target: T2, Interleukin-8; test: Dose Response confirmation of uHTS small molecule hits for cystic fibrosis induced NFkb Inhibitors in a TNFa-induced IL8 counterscreen.; assay type: functional; conditions: read-out: IC50_Mean
[21] = NIH3T3 cell viability loss – ATP luminescence, mouse fibroblasts, counter-screen, dose response (AID 2010); assay type: functional, cell-based;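 note: cells exposed to compound for about 90 hours before reading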
[22] = Trypanosoma cruzi growth suppression in host cells – NIH3T3 host cells, beta-gal luminescence, confirmation (AID 2044); assay type: functional, cell-based;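 note: intracellular parasites grown in NIH/3T3 mouse fibroblasts as host cells; luminescent beta-galactosidase reporter signal from transgenic T. cruzi replicating inside host cells; inhibitors lower the luminescence signal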
[23] = target: Aryl hydrocarbon receptor (Homo sapiens, UniProt P35869); conditions: Potency;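 note: confirmatory quantitative high-throughput screen measuring activation of the AhR signaling pathway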
[24] = target: Heat shock protein HSP 90-alpha (Homo sapiens, UniProt P07900); assay type: functional, organism-based
Prothrombin = Prothrombin (Bos taurus, UniProt P00735); test: thrombin protease inhibitors – biochemical, fluorescence polarization, uHTS hits, dose response (AID 602369); assay type: functional
[25] = Luminescence Cell-Based Dose Confirmation HTS to Identify Activators of 5'UTR Stem-Loop Driven Alpha-Synuclein mRNA Translation in H4 Neuroglioblastoma Cells. [Related pubchem assays: 1829 (Project Summary), 1814 (Primary HTS)]; assay type: functional
[26] = target: 72 kDa type IV collagenase (Homo sapiens, UniProt P08253); test: Dose Response validation of uHTS RPN11 inhibitor hits using a MMP-2 Fluorescence assay.; assay type: functional
Chain of 72 kDa type IV collagenase (P08253 whole entry): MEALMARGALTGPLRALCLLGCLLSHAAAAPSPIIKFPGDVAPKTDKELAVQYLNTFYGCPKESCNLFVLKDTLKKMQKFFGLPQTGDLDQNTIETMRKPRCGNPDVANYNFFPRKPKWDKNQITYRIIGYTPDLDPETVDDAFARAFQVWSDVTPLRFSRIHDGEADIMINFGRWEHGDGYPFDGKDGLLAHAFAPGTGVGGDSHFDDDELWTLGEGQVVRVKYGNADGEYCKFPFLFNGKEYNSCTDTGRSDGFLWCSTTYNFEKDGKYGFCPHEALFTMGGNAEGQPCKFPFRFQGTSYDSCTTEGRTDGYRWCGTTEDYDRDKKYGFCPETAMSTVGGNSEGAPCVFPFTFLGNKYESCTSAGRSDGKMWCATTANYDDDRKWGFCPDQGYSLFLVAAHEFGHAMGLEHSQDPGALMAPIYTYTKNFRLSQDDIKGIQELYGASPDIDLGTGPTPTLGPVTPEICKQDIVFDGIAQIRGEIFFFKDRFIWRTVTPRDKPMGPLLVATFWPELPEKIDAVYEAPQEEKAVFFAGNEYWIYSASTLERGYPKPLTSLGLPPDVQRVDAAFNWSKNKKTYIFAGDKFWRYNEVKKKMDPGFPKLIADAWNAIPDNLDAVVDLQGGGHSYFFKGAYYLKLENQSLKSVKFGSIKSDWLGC

[27] = target: T3, Rac GTPase-activating protein 1 (Homo sapiens, UniProt Q9H0H5); test: blockers of MgcRacGAP-driven Rac1 GTP hydrolysis – biochemical, ADP Hunter fluorescence, primary and confirmatory, confirmation (AID 624330); assay type: functional
T3 sequence (Q9H0H5 whole entry): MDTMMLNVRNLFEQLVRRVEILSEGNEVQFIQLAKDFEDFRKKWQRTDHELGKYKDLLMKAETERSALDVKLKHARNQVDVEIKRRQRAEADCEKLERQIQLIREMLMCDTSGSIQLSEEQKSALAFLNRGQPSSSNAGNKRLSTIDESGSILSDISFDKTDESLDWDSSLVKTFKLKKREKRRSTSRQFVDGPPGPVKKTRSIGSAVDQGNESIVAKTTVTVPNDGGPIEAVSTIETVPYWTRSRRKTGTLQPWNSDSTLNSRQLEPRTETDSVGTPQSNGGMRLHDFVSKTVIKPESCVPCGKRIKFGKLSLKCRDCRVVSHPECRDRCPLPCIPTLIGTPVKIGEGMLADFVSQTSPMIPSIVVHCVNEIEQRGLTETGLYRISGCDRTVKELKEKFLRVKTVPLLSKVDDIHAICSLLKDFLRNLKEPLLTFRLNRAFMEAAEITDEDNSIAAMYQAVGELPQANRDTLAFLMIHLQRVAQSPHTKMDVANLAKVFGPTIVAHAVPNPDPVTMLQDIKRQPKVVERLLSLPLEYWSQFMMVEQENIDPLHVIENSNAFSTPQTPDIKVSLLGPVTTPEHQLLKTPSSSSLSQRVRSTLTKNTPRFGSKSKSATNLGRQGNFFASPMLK

[28] = Luminescence Cell-Based Dose Response HTS to Identify Activators of Luciferase Translation or Activity in H4 […] Cells. [Related pubchem assays: 1829 (Project Summary), 1814 (Primary HTS)]; assay type: functional
[29] = target: 26S proteasome non-ATPase regulatory subunit 14 (Homo sapiens, UniProt O00487); test: inhibition of proteasome subunit RPN11 – biochemical, fluorescence polarization, uHTS hits, confirmation (AID 602368); assay type: functional
Chain of 26S proteasome non-ATPase regulatory subunit 14 (O00487 whole entry): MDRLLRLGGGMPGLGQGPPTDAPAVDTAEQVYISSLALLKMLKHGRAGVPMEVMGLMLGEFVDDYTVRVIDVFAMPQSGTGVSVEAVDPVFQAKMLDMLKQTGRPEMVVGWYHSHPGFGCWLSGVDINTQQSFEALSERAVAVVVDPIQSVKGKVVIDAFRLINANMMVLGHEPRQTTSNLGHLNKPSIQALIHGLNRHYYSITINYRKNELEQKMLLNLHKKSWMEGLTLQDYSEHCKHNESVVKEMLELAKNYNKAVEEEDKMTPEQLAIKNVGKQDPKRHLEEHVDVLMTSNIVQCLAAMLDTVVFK

H4 = test: Luminescence Cell-Based Dose Response HTS to Identify Activators of 5'UTR Stem-Loop Driven Prion Protein mRNA Translation in H4 Neuroglioblastoma Cells. [Related pubchem assays: 1829 (Project Summary), 1814 (Primary HTS)]; assay type: functional; conditions: Homo sapiens
[30] = target: T4, Serine/threonine-protein phosphatase (Candida dubliniensis (strain CD36 / CBS 7987 / NCPF 3949 / NRRLY-17841) (Yeast), UniProt B9W6M3); test: blockers of CaCl2-induced CDRE-lacZ signaling – S. cerevisiae, luminescence, secondary, dose response (AID 2388); assay type: functional, cell-based;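 note: yeast reporter cells carrying a calcineurin-responsive lacZ construct stimulated with calcium chloride; luminescent beta-galactosidase reporter signal in whole cells rather than isolated phosphatase activity; potency for inhibition where a drop in reporter signal means calcineurin blockade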
T4 sequence (B9W6M3 whole entry): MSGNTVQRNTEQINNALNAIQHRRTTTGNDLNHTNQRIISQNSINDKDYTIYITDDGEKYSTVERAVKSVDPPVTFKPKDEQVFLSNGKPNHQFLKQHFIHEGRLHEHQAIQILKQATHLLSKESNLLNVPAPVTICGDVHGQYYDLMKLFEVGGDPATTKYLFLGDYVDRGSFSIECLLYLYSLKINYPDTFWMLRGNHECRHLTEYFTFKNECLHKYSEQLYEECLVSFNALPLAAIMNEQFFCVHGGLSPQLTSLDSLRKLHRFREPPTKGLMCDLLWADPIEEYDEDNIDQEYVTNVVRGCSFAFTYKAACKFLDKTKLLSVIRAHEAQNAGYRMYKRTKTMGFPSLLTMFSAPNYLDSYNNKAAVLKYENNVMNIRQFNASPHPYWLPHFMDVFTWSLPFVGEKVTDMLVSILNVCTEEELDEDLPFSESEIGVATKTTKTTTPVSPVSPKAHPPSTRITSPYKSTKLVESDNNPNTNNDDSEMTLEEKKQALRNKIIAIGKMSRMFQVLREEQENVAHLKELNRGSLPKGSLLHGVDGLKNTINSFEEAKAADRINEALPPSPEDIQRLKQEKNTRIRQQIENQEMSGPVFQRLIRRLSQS

[31] = NIH-3T3 fibroblast cytotoxicity, dose response, cytotoxicity control, cell-based, fluorescence, Alamar Blue, secondary assay (AID 2327); assay type: functional;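 note: NIH-3T3 mouse fibroblasts cultured with fluconazole at 8 µg/mL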
[32] = fluconazole-exposed Candida albicans growth modulators – fluorescence, retest, confirmation (AID 2467); assay type: functional, cell-based
[33] = target: ATP-dependent molecular chaperone HSP82 (Candida albicans (strain WO-1) (Yeast), UniProt C4YTQ8); test: steroid-induced GRE reporter decrease in yeast – S. cerevisiae, luminescence, Hsp90 inhibitor project, dose response (AID 2400); assay type: functional, cell-based;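 note: beta-galactosidase luminescence from glucocorticoid response element reporter as proxy for Hsp90 function; inhibitor potency where signal loss means Hsp90 inhibition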
[34] = target: Benomyl/methotrexate resistance protein (Candida albicans, UniProt P28873); test: Candida albicans Mdr1 pump inhibition curves – singleplex, Cherry Pick1 hits, dose response (AID 588608); assay type: functional
[35] = viability loss in HeLa cells – cytotoxicity control for MgcRacGAP inhibitor project, dose response (AID 624300); assay type: functional

O=C(c1ccc2c3n(nc2c1)-c1ccccc1CO3)N1CCOCC1
EC50 (BJ [1]): 4.57 µM (inconclusive)
AC50 [2]: 12.6 µM (active)
AC50 [3]: 17.7 µM (active)
EC50 (BJ [4]): > 133 µM (inactive)
EC50 (BJ [5]): 3.76 µM (active)
EC50 (BJ [6]): 17 µM (active)
EC50 [7]: 10.8 µM (active)
EC50 [8]: 1.55 µM (active)
EC50 [9]: 5.29 µM (active)
AC50 [10]: 12.3 µM (active)

Cn1c(SCC(=O)c2ccccc2)nnc1-c1sc2ccccc2c1Cl
IC50 [11]: > 99 µM (inactive)
IC50 [12]: > 99 µM (inactive)

CCOC(=O)CNC(=O)[C@H](Cc1ccccc1)NC(=O)OCc1ccccc1 (Cbz-Phe-Gly-OEt)
CC50 [13]: 32.1 µM (active)
CC50 [14]: 58.5 µM (active)

COc1ccc(NC(=O)Nc2cccc3c2O[C@H](CN(C)C(=O)Nc2ccc(C(F)(F)F)cc2)[C@@H](C)CN([C@H](C)CO)C3=O)cc1
IC50 (Fatty acid synthase [15]): 7.98 µM (active)
IC50 (Fatty acid synthase [16]): 11.6 µM (active)
IC50 [17]: > 64.6 µM (inactive)
IC50 (Melanocortin receptor 4): 23.1 µM (inactive)

O=C(COC(=O)CCN1C(=O)c2cccc([N+](=O)[O-])c2C1=O)NCc1ccccc1
IC50 [17]: > 64.6 µM (inactive)
IC50 (Melanocortin receptor 4): > 64.6 µM (inactive)

O=C(COc1ccccc1)Nc1nnc(-c2ccccc2)o1
AC50 [18]: 93.8 µM (active)

CN1CCC(OC(=O)c2cc3cc(Cl)cc(Cl)c3oc2=O)CC1
IC50 (Interleukin-8 [19]): 3.45 µM (active)
IC50 (Interleukin-8 [20]): 8.62 µM (active)

CCCC1COC(Cn2cncn2)(c2ccc(Cl)cc2Cl)O1 (configuration not stated) [PROPICONAZOLE]
EC50 [21]: > 60 µM (not active)
EC50 [22]: < 0.1 µM (active)
AC50 [23]: 70.8 µM (inconclusive)
EC50 (cells): 0.041 µM (active)
AC50 [24]: < 0.195 µM (active)

Cc1c(N=Nc2ccc(N(C)C)cc2)c(=O)n(-c2ccccc2)n1C
IC50 (Prothrombin): 42.8 µM (active)
EC50 [25]: 11.1 µM (active)
IC50 [26]: > 100 µM (inactive)
IC50 [27]: 56.9 µM (active)
EC50 [28]: 6.8 µM (active)
IC50 [29]: 73.1 µM (active)
EC50 (H4): 34.5 µM (active)

Cn1cc(C(c2ccccn2)c2cn(C)c3ccccc23)c2ccccc21
EC50 [30]: > 180 µM (inactive)
EC50 [31]: 55.6 µM (active)
EC50 [32]: 0.157 µM (active)
EC50 [33]: > 150 µM (inactive)
EC50 [34]: 7.76 µM (active)

CCc1ccc(O)c(/N=C/c2cccc(C)c2O)c1
IC50 (Prothrombin): 11.8 µM (active)
IC50 [26]: > 100 µM (inactive)
IC50 [27]: 45.5 µM (active)
IC50 [29]: 29.4 µM (active)
CC50 [35]: 100 µM (active)

c1cnc2nc(SCc3cn4ccccc4n3)[nH]c2c1
IC50 [11]: > 99 µM (inactive)
IC50 [12]: > 99 µM (inactive)
